For this data set, the system named is human PKK mRNA. Nature of the data set: Antisense inhibition of human PKK mRNA in HepaRG cells, 1,000 nM, MOE/deoxy/cEt oligonucleotides (Example 3). The data set is classed as cell-based. The essentials:
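Readout is percent PKK mRNA reduction against untreated controls, by real-time PCR (RTS3454) adjusted for total RNA via RIBOGREEN. Oligonucleotides, phosphorothioate gapmers of 16 nucleosides with cEt, MOE and deoxy sugars, were delivered at 1,000 nM by electroporation to 20,000 HepaRG cells/well for roughly 24 h.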

Where [1] appears, read: Table 19, HepaRG cells, electroporation with 1,000 nM antisense oligonucleotide, approximately 24 hours, PKK mRNA by RT-PCR (RTS3454), relative to untreated control cells.
The mark [2] stands for this setting: PKK mRNA, HepaRG cells, 1,000 nM antisense oligonucleotide, Table 31.
The mark [3] stands for this setting: HepaRG cells, electroporation with 1,000 nM antisense oligonucleotide, approx. 24 hours, PKK mRNA by RT-PCR (RTS3454), relative to untreated control cells, Table 25 experiment.
Where [4] appears, read: Table 27, HepaRG cells, 1,000 nM antisense oligonucleotide, human PKK mRNA.
The mark [5] stands for this setting: Table 30, human PKK mRNA, HepaRG cells, 1,000 nM antisense oligonucleotide.
Setting [6] is: Table 21 experiment, HepaRG cells, electroporation with 1,000 nM antisense oligonucleotide, approx. 24 hours, PKK mRNA by RT-PCR (RTS3454), relative to untreated control cells.
The mark [7] stands for this setting: HepaRG cells, electroporation with 1,000 nM antisense oligonucleotide, approximately 24 hours, primer probe set RTS3454, relative to untreated control cells, experiment of Table 24.
Setting [8] is: HepaRG cells, 1,000 nM antisense oligonucleotide, Table 29.
Setting [9] is: Table 20, HepaRG cells, electroporation with 1,000 nM antisense oligonucleotide, approximately 24 hours, PKK mRNA by RT-PCR (RTS3454), relative to untreated control cells.
Setting [10] is: Table 22 experiment, HepaRG cells, electroporation with 1,000 nM antisense oligonucleotide, approx. 24 hours, PKK mRNA by RT-PCR (RTS3454), relative to untreated control cells.
Setting [11] is: HepaRG cells, electroporation with 1,000 nM antisense oligonucleotide, approx. 24 hours, PKK mRNA by RT-PCR (RTS3454), relative to untreated control cells, Table 26 experiment.
The mark [12] stands for this setting: Table 28, HepaRG cells, 1,000 nM antisense oligonucleotide, human PKK mRNA.

Strand notation (5' to 3'): a small letter for the sugar, then the base; units joined by * are phosphorothioate-linked, units joined directly phosphodiester-linked; [ ] holds rarer units or linkages, { } end groups; capitals alone tell only the bases. e = 2'-O-(2-methoxyethyl) (MOE); k = constrained ethyl (cEt); [5mC] = 5-methylcytosine; d = 2'-deoxy (DNA)

As to “548075 (eA*e[5mC]*k[5mC]*dT*dT*dT*d[5mC]*dT*d[5mC]*d[5mC]*dT*dT*d[5mC]*kG*kA*eG; antisense) [compound 548075]”, under setting [1], the “% inhibition” value turned out to be 0%. Regarding “548622 (antisense eT*eT*kT*d[5mC]*dT*dA*dT*dG*dG*dG*d[5mC]*d[5mC]*dT*kG*kA*e[5mC]) [compound 548622]”, under setting [2], the “% inhibition” value is listed as 0%. As for “548157 (eA*eT*kT*dG*dT*d[5mC]*dA*dG*d[5mC]*d[5mC]*d[5mC]*d[5mC]*dT*kG*kG*eT; antisense) [compound 548157]”, the “% inhibition” value under setting [3] was 7%. “548315 (eG*eT*kT*dG*dT*d[5mC]*dA*dA*d[5mC]*dT*dG*dG*dG*kA*k[5mC]*e[5mC]; antisense) [compound 548315]”: the “% inhibition” value under setting [4] was determined as 14%.

Turning to “548650 (antisense e[5mC]*eT*kG*dA*dT*d[5mC]*d[5mC]*d[5mC]*dA*d[5mC]*dT*dT*dG*k[5mC]*k[5mC]*e[5mC]) [compound 548650]”, the “% inhibition” value under setting [2] is reported as 21%. For “548387 (eT*eG*kA*dA*dG*dG*dG*d[5mC]*dG*dA*dG*dG*d[5mC]*kG*k[5mC]*eA; antisense) [compound 548387]”, the “% inhibition” value under setting [5] is listed as 22%. Consider “547827 (eG*eT*kT*d[5mC]*dG*dA*dT*dG*dT*dA*d[5mC]*dT*dT*kT*kT*eG; antisense) [compound 547827]”, for which, under setting [6], the “% inhibition” value amounted to 47%. Regarding “548029 (eT*eG*kG*dT*dG*dT*d[5mC]*d[5mC]*dT*dA*dT*dG*dA*kG*kT*eG; antisense) [compound 548029]”, under setting [7], the “% inhibition” value amounted to 12%. Consider “548411 (antisense e[5mC]*eA*kG*dT*dA*dT*d[5mC]*dA*d[5mC]*dT*dG*dT*dA*k[5mC]*kT*eA) [compound 548411]”, for which the “% inhibition” value under setting [5] turned out to be 72%. Consider “548565 (antisense eG*eG*k[5mC]*dA*dT*dT*dA*dG*dG*dA*dT*dA*dG*kG*k[5mC]*eA) [compound 548565]”, for which the “% inhibition” value under setting [8] is recorded as 63%. Turning to “548391 (eG*eT*kA*d[5mC]*dA*dT*dG*dA*d[5mC]*dT*d[5mC]*d[5mC]*dA*kG*kT*eG; antisense) [compound 548391]”, under setting [5], the “% inhibition” value was 34%. Regarding “547919 (eG*eA*kA*d[5mC]*d[5mC]*d[5mC]*dT*dG*dG*d[5mC]*dA*dA*d[5mC]*kA*kT*e[5mC]; antisense) [compound 547919]”, the “% inhibition” value is reported as 41% under setting [9] and 73% under setting [10]. With “548238 (eA*e[5mC]*kT*d[5mC]*dG*d[5mC]*d[5mC]*dT*dT*dT*dG*dT*dG*kA*k[5mC]*eT; antisense) [compound 548238]”, the “% inhibition” value under setting [11] is given as 31%.

For “548443 (antisense eG*eT*kT*dT*d[5mC]*d[5mC]*dT*dA*dT*dA*dA*d[5mC]*dA*kG*kT*eA) [compound 548443]”, the “% inhibition” value under setting [5] turned out to be 12%.

As for “548672 (antisense e[5mC]*e[5mC]*k[5mC]*d[5mC]*d[5mC]*d[5mC]*dA*dG*dA*dA*dA*dT*d[5mC]*k[5mC]*k[5mC]*eA) [compound 548672]”, the “% inhibition” value under setting [2] came out at 40%. As to “548504 (antisense eG*e[5mC]*kA*dG*d[5mC]*dG*dA*dG*d[5mC]*dA*dT*dT*d[5mC]*k[5mC]*kA*eA) [compound 548504]”, the “% inhibition” value under setting [12] was determined as 28%. Regarding “548482 (eG*eG*k[5mC]*dA*dG*dT*dT*dA*dG*dG*d[5mC]*d[5mC]*dA*kG*kG*eA; antisense) [compound 548482]”, under setting [12], the “% inhibition” value is recorded as 53%. As to “548211 (eA*e[5mC]*k[5mC]*dA*dA*d[5mC]*dA*dA*dT*d[5mC]*dT*d[5mC]*dT*kG*kG*eT; antisense) [compound 548211]”, the “% inhibition” value under setting [3] was 51%. With “547898 (e[5mC]*eT*kT*dT*dA*dA*dT*dA*dG*dG*d[5mC]*dA*dA*kT*kT*eG; antisense) [compound 547898]”, the “% inhibition” value was found to be 0% under setting [9] and 28% under setting [10]. For “548294 (eG*eT*kG*dT*dG*d[5mC]*dA*d[5mC]*dT*dT*dT*d[5mC]*dT*kG*kG*eT; antisense) [compound 548294]”, the “% inhibition” value under setting [11] is 33%. With “548015 (eT*eT*kG*dT*d[5mC]*d[5mC]*d[5mC]*d[5mC]*dA*dG*dT*dG*dT*kT*kA*e[5mC]; antisense) [compound 548015]”, the “% inhibition” value under setting [7] turned out to be 50%.

As to “547765 (antisense eA*eG*kG*dT*dG*dA*dG*dT*d[5mC]*dT*d[5mC]*dT*dT*kG*kT*e[5mC]) [compound 547765]”, under setting [6], the “% inhibition” value is 20%. For the substance “548054 (eA*eA*kT*dT*d[5mC]*dA*dA*dA*dG*dG*dA*dG*d[5mC]*k[5mC]*kT*eG; antisense) [compound 548054]”, the “% inhibition” value under setting [7] was 45%. As for “548093 (antisense eT*eT*kT*dG*d[5mC]*dA*dA*dA*d[5mC]*dT*dA*dA*dG*kG*kG*eA) [compound 548093]”, the “% inhibition” value under setting [1] stood at 0%. Consider “547918 (eA*eA*k[5mC]*d[5mC]*d[5mC]*dT*dG*dG*d[5mC]*dA*dA*d[5mC]*dA*kT*k[5mC]*e[5mC]; antisense) [compound 547918]”, for which the “% inhibition” value is, setting by setting: under setting [9], 1%; under setting [10], 65%. Turning to “548621 (antisense eG*eA*kA*d[5mC]*dA*d[5mC]*dA*dT*d[5mC]*dA*dG*dG*dG*kA*kT*eT) [compound 548621]”, the “% inhibition” value under setting [2] came to 33%. Turning to “547935 (eA*e[5mC]*kT*d[5mC]*dG*dA*dT*dT*dT*dT*d[5mC]*d[5mC]*dA*kT*kA*e[5mC]; antisense) [compound 547935]”, the “% inhibition” value (HepaRG cells, electroporation with 1,000 nM antisense oligonucleotide, approximately 24 hours, primer probe set RTS3454, relative to untreated control cells, experiment of Table 23) is recorded as 27%.

Consider “548477 (eG*e[5mC]*kA*d[5mC]*dG*dA*dG*d[5mC]*dT*dT*dG*d[5mC]*d[5mC]*kT*kG*eT; antisense) [compound 548477]”, for which the “% inhibition” value under setting [12] is 26%.

On to “548499 (antisense eA*eT*kA*d[5mC]*d[5mC]*d[5mC]*dG*dG*dA*dG*dT*d[5mC]*dA*kG*kG*eA) [compound 548499]”, for which, under setting [12], the “% inhibition” value is on record as 56%. Regarding “548202 (eG*e[5mC]*kT*dG*dT*dT*d[5mC]*dT*dA*dA*dT*dG*dT*kG*kG*e[5mC]; antisense) [compound 548202]”, the “% inhibition” value under setting [3] was 9%.

With “548072 (eT*eT*kT*d[5mC]*dT*d[5mC]*d[5mC]*dT*dT*d[5mC]*dG*dA*dG*kA*kA*eG; antisense) [compound 548072]”, under setting [7], the “% inhibition” value is 33%. On to “548577 (eA*eA*kT*d[5mC]*dT*dG*d[5mC]*dA*d[5mC]*d[5mC]*dT*dG*dG*k[5mC]*kA*eG; antisense) [compound 548577]”, for which, under setting [8], the “% inhibition” value was 42%. Take “548610 (antisense eG*eG*kA*dT*d[5mC]*dG*dG*dT*dG*dG*dT*dG*dG*kG*kA*eT) [compound 548610]”: the “% inhibition” value under setting [8] is reported as 2%. Turning to “548209 (e[5mC]*eA*kA*dT*d[5mC]*dT*d[5mC]*dT*dG*dG*dT*d[5mC]*dA*kA*kT*e[5mC]; antisense) [compound 548209]”, under setting [3], the “% inhibition” value is given as 57%. Consider “548279 (antisense e[5mC]*eA*k[5mC]*d[5mC]*dT*dA*dG*dA*dA*d[5mC]*dT*dA*dT*k[5mC]*k[5mC]*eA) [compound 548279]”, for which, under setting [11], the “% inhibition” value is listed as 39%. As to “547777 (antisense eT*eT*kG*d[5mC]*dT*dT*d[5mC]*dT*dT*dG*dG*dA*dG*kG*kT*eG) [compound 547777]”, the “% inhibition” value under setting [6] was 69%.

For “548036 (e[5mC]*e[5mC]*kA*d[5mC]*dT*dA*dT*dA*dG*dA*dT*dG*d[5mC]*kG*k[5mC]*e[5mC]; antisense) [compound 548036]”, under setting [7], the “% inhibition” value worked out at 74%.

For the substance “548398 (eA*eT*kA*dG*dG*d[5mC]*dA*dA*dT*dT*dG*dT*dT*k[5mC]*k[5mC]*eT; antisense) [compound 548398]”, the “% inhibition” value under setting [5] came to 55%. Regarding “548142 (eA*e[5mC]*kT*d[5mC]*dT*d[5mC]*d[5mC]*dA*dT*dG*d[5mC]*dT*dT*kT*kG*e[5mC]; antisense) [compound 548142]”, the “% inhibition” value under setting [1] is on record as 44%. With “548044 (eT*eG*kG*dT*dG*dA*dA*dT*dA*dA*dT*dA*dA*kT*k[5mC]*eT; antisense) [compound 548044]”, under setting [7], the “% inhibition” value was 12%.

Regarding “547873 (antisense e[5mC]*eT*kG*d[5mC]*dT*dA*dA*d[5mC]*d[5mC]*dT*dT*dA*dG*kA*k[5mC]*eA) [compound 547873]”, the “% inhibition” value under setting [9] came to 77% and the “% inhibition” value under setting [10] was found to be 82%.

For “548321 (e[5mC]*eT*kG*d[5mC]*dA*dT*d[5mC]*dT*dG*dG*dA*d[5mC]*dT*kA*kT*eG; antisense) [compound 548321]”, the “% inhibition” value under setting [4] came out at 38%.

With “548614 (antisense eT*eG*kG*dT*dG*dG*d[5mC]*dG*dG*dG*dA*dT*d[5mC]*kG*kG*eT) [compound 548614]”, under setting [2], the “% inhibition” value was determined as 0%. “548551 (antisense e[5mC]*eG*kG*d[5mC]*d[5mC]*dA*dA*dT*dG*dG*dG*dA*dA*kA*kG*eG) [compound 548551]”: under setting [8], the “% inhibition” value came out at 25%.

In general, % inhibition refers to the share of the control response that was lost under treatment. Lower therefore signals little suppression.

These data come from US11840686B2, “Modulation of prekallikrein (PKK) expression” (Ionis Pharmaceuticals, Inc., priority 2013, dated 2023).
